#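 48-hour exposure; five concentrations; linearly interpolated endpoints. The concentration for full growth arrest is given as TGI.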
# System: A549 NSCLC
# Assay: NCI-60 cell line screen, 48 h
row,SMILES,TGI [µM]
1,CN(C)C(c1ccccc1)C(O)c1ccccc1 (stereo not drawn),> 100
2,FC(F)(F)c1nc(-c2ccccc2)oc1Sc1nnc(Sc2oc(-c3ccccc3)nc2C(F)(F)F)s1,> 100
3,O=C(Nc1ccc(Cl)cc1Cl)C(=O)C(C(=O)c1ccncc1)C1OC(=O)c2ccccc21 (stereo not drawn),> 100

# System: NCI-H226 lung
# Assay: NCI-60 cell line screen, 48 h
row,SMILES,TGI [µM]
1,c1cc2c(ncc3cscc32)s1,> 100
2,CN(C)C(c1ccccc1)C(O)c1ccccc1 (stereo not drawn),> 100
3,O=C(Nc1ccc(Cl)cc1Cl)C(=O)C(C(=O)c1ccncc1)C1OC(=O)c2ccccc21 (stereo not drawn),> 100

# System: HOP-62 NSCLC
# Assay: NCI-60 cell line screen, 48 h
row,SMILES,TGI [µM]
1,c1cc2c(ncc3cscc32)s1,> 100
2,CN(C)C(c1ccccc1)C(O)c1ccccc1 (stereo not drawn),> 100
3,FC(F)(F)c1nc(-c2ccccc2)oc1Sc1nnc(Sc2oc(-c3ccccc3)nc2C(F)(F)F)s1,> 100
4,O=C(Nc1ccc(Cl)cc1Cl)C(=O)C(C(=O)c1ccncc1)C1OC(=O)c2ccccc21 (stereo not drawn),> 100

# System: UO-31 renal
# Assay: NCI-60 cell line screen, 48 h
row,SMILES,TGI [µM]
1,c1cc2c(ncc3cscc32)s1,> 100
2,CN(C)C(c1ccccc1)C(O)c1ccccc1 (stereo not drawn),> 100
3,FC(F)(F)c1nc(-c2ccccc2)oc1Sc1nnc(Sc2oc(-c3ccccc3)nc2C(F)(F)F)s1,> 100
4,O=C(Nc1ccc(Cl)cc1Cl)C(=O)C(C(=O)c1ccncc1)C1OC(=O)c2ccccc21 (stereo not drawn),> 100

# System: SN12C renal
# Assay: NCI-60 cell line screen, 48 h
row,SMILES,TGI [µM]
1,c1cc2c(ncc3cscc32)s1,> 100
2,CN(C)C(c1ccccc1)C(O)c1ccccc1 (stereo not drawn),> 100
3,FC(F)(F)c1nc(-c2ccccc2)oc1Sc1nnc(Sc2oc(-c3ccccc3)nc2C(F)(F)F)s1,> 100
4,O=C(Nc1ccc(Cl)cc1Cl)C(=O)C(C(=O)c1ccncc1)C1OC(=O)c2ccccc21 (stereo not drawn),> 100

# System: MDA-N
# Assay: NCI-60 cell line screen, 48 h
row,SMILES,TGI [µM]
1,c1cc2c(ncc3cscc32)s1,> 100

# System: NCI-H23 lung
# Assay: NCI-60 cell line screen, 48 h
row,SMILES,TGI [µM]
1,c1cc2c(ncc3cscc32)s1,> 100
2,CN(C)C(c1ccccc1)C(O)c1ccccc1 (stereo not drawn),> 100
3,FC(F)(F)c1nc(-c2ccccc2)oc1Sc1nnc(Sc2oc(-c3ccccc3)nc2C(F)(F)F)s1,67.3
4,O=C(Nc1ccc(Cl)cc1Cl)C(=O)C(C(=O)c1ccncc1)C1OC(=O)c2ccccc21 (stereo not drawn),> 100

# System: HS 578T breast
# Assay: NCI-60 cell line screen, 48 h
row,SMILES,TGI [µM]
1,c1cc2c(ncc3cscc32)s1,> 100

# System: SNB-75 CNS
# Assay: NCI-60 cell line screen, 48 h
row,SMILES,TGI [µM]
1,c1cc2c(ncc3cscc32)s1,> 100
2,CN(C)C(c1ccccc1)C(O)c1ccccc1 (stereo not drawn),> 100
3,FC(F)(F)c1nc(-c2ccccc2)oc1Sc1nnc(Sc2oc(-c3ccccc3)nc2C(F)(F)F)s1,> 100
4,O=C(Nc1ccc(Cl)cc1Cl)C(=O)C(C(=O)c1ccncc1)C1OC(=O)c2ccccc21 (stereo not drawn),> 100

# System: RXF-631 renal
# Assay: NCI-60 cell line screen, 48 h
row,SMILES,TGI [µM]
1,c1cc2c(ncc3cscc32)s1,> 100
2,CN(C)C(c1ccccc1)C(O)c1ccccc1 (stereo not drawn),> 100
3,FC(F)(F)c1nc(-c2ccccc2)oc1Sc1nnc(Sc2oc(-c3ccccc3)nc2C(F)(F)F)s1,> 84.1
4,O=C(Nc1ccc(Cl)cc1Cl)C(=O)C(C(=O)c1ccncc1)C1OC(=O)c2ccccc21 (stereo not drawn),> 100

# System: IGROV1 ovarian
# Assay: NCI-60 cell line screen, 48 h
row,SMILES,TGI [µM]
1,c1cc2c(ncc3cscc32)s1,> 31.6
2,CN(C)C(c1ccccc1)C(O)c1ccccc1 (stereo not drawn),> 100
3,FC(F)(F)c1nc(-c2ccccc2)oc1Sc1nnc(Sc2oc(-c3ccccc3)nc2C(F)(F)F)s1,49.3
4,O=C(Nc1ccc(Cl)cc1Cl)C(=O)C(C(=O)c1ccncc1)C1OC(=O)c2ccccc21 (stereo not drawn),> 100

# System: OVCAR-4 ovarian
# Assay: NCI-60 cell line screen, 48 h
row,SMILES,TGI [µM]
1,c1cc2c(ncc3cscc32)s1,> 100
2,FC(F)(F)c1nc(-c2ccccc2)oc1Sc1nnc(Sc2oc(-c3ccccc3)nc2C(F)(F)F)s1,28
3,O=C(Nc1ccc(Cl)cc1Cl)C(=O)C(C(=O)c1ccncc1)C1OC(=O)c2ccccc21 (stereo not drawn),> 100

# System: DMS 273 small cell lung
# Assay: NCI-60 cell line screen, 48 h
row,SMILES,TGI [µM]
1,c1cc2c(ncc3cscc32)s1,> 100
2,CN(C)C(c1ccccc1)C(O)c1ccccc1 (stereo not drawn),> 100
3,FC(F)(F)c1nc(-c2ccccc2)oc1Sc1nnc(Sc2oc(-c3ccccc3)nc2C(F)(F)F)s1,> 100

# System: SK-MEL-2 melanoma
# Assay: NCI-60 cell line screen, 48 h
row,SMILES,TGI [µM]
1,c1cc2c(ncc3cscc32)s1,> 100
2,CN(C)C(c1ccccc1)C(O)c1ccccc1 (stereo not drawn),> 100
3,FC(F)(F)c1nc(-c2ccccc2)oc1Sc1nnc(Sc2oc(-c3ccccc3)nc2C(F)(F)F)s1,> 100

# System: A498 renal
# Assay: NCI-60 cell line screen, 48 h
row,SMILES,TGI [µM]
1,c1cc2c(ncc3cscc32)s1,> 100
2,CN(C)C(c1ccccc1)C(O)c1ccccc1 (stereo not drawn),> 100
3,FC(F)(F)c1nc(-c2ccccc2)oc1Sc1nnc(Sc2oc(-c3ccccc3)nc2C(F)(F)F)s1,> 100
4,O=C(Nc1ccc(Cl)cc1Cl)C(=O)C(C(=O)c1ccncc1)C1OC(=O)c2ccccc21 (stereo not drawn),> 100

# System: EKVX NSCLC
# Assay: NCI-60 cell line screen, 48 h
row,SMILES,TGI [µM]
1,c1cc2c(ncc3cscc32)s1,> 100
2,CN(C)C(c1ccccc1)C(O)c1ccccc1 (stereo not drawn),> 100
3,FC(F)(F)c1nc(-c2ccccc2)oc1Sc1nnc(Sc2oc(-c3ccccc3)nc2C(F)(F)F)s1,> 80.7
4,O=C(Nc1ccc(Cl)cc1Cl)C(=O)C(C(=O)c1ccncc1)C1OC(=O)c2ccccc21 (stereo not drawn),> 100

# System: SNB-19 CNS
# Assay: NCI-60 cell line screen, 48 h
row,SMILES,TGI [µM]
1,c1cc2c(ncc3cscc32)s1,> 100
2,CN(C)C(c1ccccc1)C(O)c1ccccc1 (stereo not drawn),> 100
3,FC(F)(F)c1nc(-c2ccccc2)oc1Sc1nnc(Sc2oc(-c3ccccc3)nc2C(F)(F)F)s1,> 100
4,O=C(Nc1ccc(Cl)cc1Cl)C(=O)C(C(=O)c1ccncc1)C1OC(=O)c2ccccc21 (stereo not drawn),> 100

# System: SK-MEL-28 melanoma
# Assay: NCI-60 cell line screen, 48 h
row,SMILES,TGI [µM]
1,c1cc2c(ncc3cscc32)s1,> 100

# Reference: PubChem BioAssay (NCI)
